Laboratory results from US9328106B2, “Cyclic ether pyrazol-4-yl-heterocyclyl-carboxamide compounds and methods of use” (Genentech, Inc., priority 2012, dated 2016).

Target: PIM1 (Homo sapiens (Human), UniProt P11309)
Test: biochemical
Assay type: biochemical
Conditions: 20 pM PIM1, 1 μM FAM-peptide, 10 μM ATP, 90 minutes at room temperature; read-out: PIM1 LC3K (KI)

Chain of PIM1 (P11309 whole entry): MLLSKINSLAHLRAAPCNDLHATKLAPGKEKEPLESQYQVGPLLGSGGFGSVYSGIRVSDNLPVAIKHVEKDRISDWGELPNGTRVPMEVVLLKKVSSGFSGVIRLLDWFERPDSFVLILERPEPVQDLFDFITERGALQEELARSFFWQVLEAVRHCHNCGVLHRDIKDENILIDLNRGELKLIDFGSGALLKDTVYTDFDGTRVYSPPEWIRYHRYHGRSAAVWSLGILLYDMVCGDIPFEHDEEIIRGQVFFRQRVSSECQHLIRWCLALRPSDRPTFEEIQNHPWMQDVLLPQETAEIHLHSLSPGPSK

Ki | Structure (SMILES)
0.083 nM | CO[C@H]1CO[C@H](c2c(NC(=O)c3nc(-c4c(F)cccc4C(F)(F)F)sc3N)cnn2C)CC[C@H]1N [Example 279, 5-amino-N-(5-((2S,5R,6R)-5-amino-6-methoxyoxepan-2-yl)-1-methyl-1H-pyrazol-4-yl)-2-(2-fluoro-6-(trifluoromethyl)phenyl)thiazole-4-carboxamide]
0.014 nM | CO[C@H]1CO[C@H](c2c(NC(=O)c3nc(-c4c(F)cccc4Cl)sc3N)cnn2C)CC[C@H]1N [Example 280, 5-amino-N-(5-((2S,5R,6R)-5-amino-6-methoxyoxepan-2-yl)-1-methyl-1H-pyrazol-4-yl)-2-(2-chloro-6-fluorophenyl)thiazole-4-carboxamide]
0.007 nM | CO[C@H]1CO[C@H](c2c(NC(=O)c3nc(-c4cc(Cl)ccc4F)sc3N)cnn2C)CC[C@H]1N [Example 281, 5-amino-N-(5-((2S,5R,6R)-5-amino-6-methoxyoxepan-2-yl)-1-methyl-1H-pyrazol-4-yl)-2-(5-chloro-2-fluorophenyl)thiazole-4-carboxamide]
0.058 nM | Cn1ncc(NC(=O)c2nc(-c3cnn(C)c3C(F)(F)F)sc2N)c1[C@@H]1CC[C@@H](N)[C@H](F)CO1 [Example 282, 5-amino-N-(5-((2S,5R,6S)-5-amino-6-fluorooxepan-2-yl)-1-methyl-1H-pyrazol-4-yl)-2-(1-methyl-5-(trifluoromethyl)-1H-pyrazol-4-yl)thiazole-4-carboxamide]
0.171 nM | Cn1ncc(NC(=O)c2csc(-c3cnn(C)c3C(F)(F)F)n2)c1[C@@H]1CC[C@@H](N)[C@@H](F)CO1 [Example 283, N-(5-((2S,5R,6R)-5-amino-6-fluorooxepan-2-yl)-1-methyl-1H-pyrazol-4-yl)-2-(1-methyl-5-(trifluoromethyl)-1H-pyrazol-4-yl)thiazole-4-carboxamide]
0.22 nM | Cn1ncc(NC(=O)c2csc(-c3c(F)cccc3Cl)n2)c1[C@@H]1CC[C@@H](N)[C@H](F)CO1 [Example 284, N-(5-((2S,5R,6S)-5-amino-6-fluorooxepan-2-yl)-1-methyl-1H-pyrazol-4-yl)-2-(2-chloro-6-fluorophenyl)thiazole-4-carboxamide]
0.001 nM | CCOc1ccc(F)c(-c2nc(C(=O)Nc3cnn(C)c3[C@@H]3CC[C@@H](N)[C@H](F)CO3)cs2)c1F [Example 285, N-(5-((2S,5R,6S)-5-amino-6-fluorooxepan-2-yl)-1-methyl-1H-pyrazol-4-yl)-2-(3-ethoxy-2,6-difluorophenyl)thiazole-4-carboxamide]
0.053 nM | COc1ccc(-c2nc(C(=O)Nc3cnn(C)c3[C@@H]3CC[C@@H](N)[C@@H](F)CO3)cs2)c(F)c1 [Example 287, N-(5-((2S,5R,6R)-5-amino-6-fluorooxepan-2-yl)-1-methyl-1H-pyrazol-4-yl)-2-(2-fluoro-4-methoxyphenyl)thiazole-4-carboxamide]
0.035 nM | COc1cc(F)c(-c2nc(C(=O)Nc3cnn(C)c3[C@@H]3CC[C@@H](N)[C@@H](F)CO3)cs2)c(F)c1 [Example 288, N-(5-((2S,5R,6R)-5-amino-6-fluorooxepan-2-yl)-1-methyl-1H-pyrazol-4-yl)-2-(2,6-difluoro-4-methoxyphenyl)thiazole-4-carboxamide]
0.08 nM | Cn1ncc(NC(=O)c2ccc(F)c(-c3c(F)cc(C(C)(C)O)cc3F)n2)c1[C@@H]1CC[C@@H](N)[C@@H](F)CO1 [Example 289, N-(5-((2S,5R,6R)-5-amino-6-fluorooxepan-2-yl)-1-methyl-1H-pyrazol-4-yl)-6-(2,6-difluoro-4-(2-hydroxypropan-2-yl)phenyl)-5-fluoropicolinamide]
0.0131 nM | Cn1ncc(NC(=O)c2ccc(F)c(-c3c(F)cc(C4(O)CCC4)cc3F)n2)c1[C@@H]1CC[C@@H](N)[C@@H](F)CO1 [Example 290, N-(5-((2S,5R,6R)-5-amino-6-fluorooxepan-2-yl)-1-methyl-1H-pyrazol-4-yl)-6-(2,6-difluoro-4-(1-hydroxycyclobutyl)phenyl)-5-fluoropicolinamide]
0.018 nM | Cn1ncc(NC(=O)c2nc(-c3cc(Cl)ccc3F)sc2N)c1[C@@H]1CC[C@@H](N)[C@H](F)CO1 [Example 291, 5-amino-N-(5-((2S,5R,6S)-5-amino-6-fluorooxepan-2-yl)-1-methyl-1H-pyrazol-4-yl)-2-(5-chloro-2-fluorophenyl)thiazole-4-carboxamide]
0.024 nM | Cc1ccc(F)c(-c2nc(C(=O)Nc3cnn(C)c3[C@@H]3CC[C@@H](N)[C@H](F)CO3)c(N)s2)c1 [Example 292, 5-amino-N-(5-((2S,5R,6S)-5-amino-6-fluorooxepan-2-yl)-1-methyl-1H-pyrazol-4-yl)-2-(2-fluoro-5-methylphenyl)thiazole-4-carboxamide]
0.059 nM | COc1ccc(-c2nc(C(=O)Nc3cnn(C)c3[C@@H]3CC[C@@H](N)[C@H](F)CO3)cs2)c(F)c1 [Example 293, N-(5-((2S,5R,6S)-5-amino-6-fluorooxepan-2-yl)-1-methyl-1H-pyrazol-4-yl)-2-(2-fluoro-4-methoxyphenyl)thiazole-4-carboxamide]
0.029 nM | CC(O)c1cc(F)c(-c2nc(C(=O)Nc3cnn(C)c3[C@@H]3CC[C@@H](N)[C@H](F)CO3)cs2)c(F)c1 (stereo partly drawn) [Example 294, N-(5-((2S,5R,6S)-5-amino-6-fluorooxepan-2-yl)-1-methyl-1H-pyrazol-4-yl)-2-(2,6-difluoro-4-(1-hydroxyethyl)phenyl)thiazole-4-carboxamide]
0.027 nM | Cn1ncc(NC(=O)c2csc(-c3c(F)cc(C4(O)CCC4)cc3F)n2)c1[C@@H]1CC[C@@H](N)[C@H](F)CO1 [Example 295, N-(5-((2S,5R,6S)-5-amino-6-fluorooxepan-2-yl)-1-methyl-1H-pyrazol-4-yl)-2-(2,6-difluoro-4-(1-hydroxycyclobutyl)phenyl)thiazole-4-carboxamide]
0.031 nM | COc1cc(F)c(-c2nc(C(=O)Nc3cnn(C)c3[C@@H]3CC[C@@H](N)[C@H](F)CO3)cs2)c(F)c1 [Example 296, N-(5-((2S,5R,6S)-5-amino-6-fluorooxepan-2-yl)-1-methyl-1H-pyrazol-4-yl)-2-(2,6-difluoro-4-methoxyphenyl)thiazole-4-carboxamide]
0.021 nM | Cn1ncc(NC(=O)c2csc(-c3c(F)cc(C(C)(C)O)cc3F)n2)c1[C@@H]1CC[C@@H](N)[C@H](F)CO1 [Example 297, N-(5-((2S,5R,6S)-5-amino-6-fluorooxepan-2-yl)-1-methyl-1H-pyrazol-4-yl)-2-(2,6-difluoro-4-(2-hydroxypropan-2-yl)phenyl)thiazole-4-carboxamide]
0.783 nM | Cn1ncc(NC(=O)c2csc(-c3ccccc3C(F)F)n2)c1[C@@H]1CC[C@@H](N)[C@H](F)CO1 [Example 298, N-(5-((2S,5R,6S)-5-amino-6-fluorooxepan-2-yl)-1-methyl-1H-pyrazol-4-yl)-2-(2-(difluoromethyl)phenyl)thiazole-4-carboxamide]
0.023 nM | Cn1ncc(NC(=O)c2csc(-c3cc(Br)ccc3F)n2)c1[C@@H]1CC[C@@H](N)[C@H](F)CO1 [Example 299, N-(5-((2S,5R,6S)-5-amino-6-fluorooxepan-2-yl)-1-methyl-1H-pyrazol-4-yl)-2-(5-bromo-2-fluorophenyl)thiazole-4-carboxamide]
0.134 nM | Cn1ncc(NC(=O)c2csc(-c3ccncc3F)n2)c1[C@@H]1CC[C@@H](N)[C@H](F)CO1 [Example 300, N-(5-((2S,5R,6S)-5-amino-6-fluorooxepan-2-yl)-1-methyl-1H-pyrazol-4-yl)-2-(3-fluoropyridin-4-yl)thiazole-4-carboxamide]
0.058 nM | Cn1ncc(NC(=O)c2csc(-c3cc(F)ccc3F)n2)c1[C@@H]1CC[C@@H](N)[C@H](F)CO1 [Example 301, N-(5-((2S,5R,6S)-5-amino-6-fluorooxepan-2-yl)-1-methyl-1H-pyrazol-4-yl)-2-(2,5-difluorophenyl)thiazole-4-carboxamide]
0.031 nM | Cn1ncc(NC(=O)c2csc(-c3cc(Cl)ccc3F)n2)c1[C@@H]1CC[C@@H](N)[C@H](F)CO1 [Example 302, N-(5-((2S,5R,6S)-5-amino-6-fluorooxepan-2-yl)-1-methyl-1H-pyrazol-4-yl)-2-(5-chloro-2-fluorophenyl)thiazole-4-carboxamide]
0.013 nM | Cc1ccc(F)c(-c2nc(C(=O)Nc3cnn(C)c3[C@@H]3CC[C@@H](N)[C@H](F)CO3)cs2)c1F [Example 303, N-(5-((2S,5R,6S)-5-amino-6-fluorooxepan-2-yl)-1-methyl-1H-pyrazol-4-yl)-2-(2,6-difluoro-3-methylphenyl)thiazole-4-carboxamide]
0.014 nM | C[C@@H](O)c1cc(F)c(-c2nc(C(=O)Nc3cnn(C)c3[C@@H]3CC[C@@H](N)[C@H](F)CO3)cs2)c(F)c1 [Example 304, N-(5-((2S,5R,6S)-5-amino-6-fluorooxepan-2-yl)-1-methyl-1H-pyrazol-4-yl)-2-(2,6-difluoro-4-((R)-1-hydroxyethyl)phenyl)thiazole-4-carboxamide]
0.008 nM | C[C@H](O)c1cc(F)c(-c2nc(C(=O)Nc3cnn(C)c3[C@@H]3CC[C@@H](N)[C@H](F)CO3)cs2)c(F)c1 [Example 305, N-(5-((2S,5R,6S)-5-amino-6-fluorooxepan-2-yl)-1-methyl-1H-pyrazol-4-yl)-2-(2,6-difluoro-4-((S)-1-hydroxyethyl)phenyl)thiazole-4-carboxamide]
0.044 nM | Cn1ncc(NC(=O)c2csc(-c3cccc(F)c3F)n2)c1[C@@H]1CC[C@@H](N)[C@H](F)CO1 [Example 306, N-(5-((2S,5R,6S)-5-amino-6-fluorooxepan-2-yl)-1-methyl-1H-pyrazol-4-yl)-2-(2,3-difluorophenyl)thiazole-4-carboxamide]
0.081 nM | CCc1ccc(F)c(-c2nc(C(=O)Nc3cnn(C)c3[C@@H]3CC[C@@H](N)[C@H](F)CO3)cs2)c1 [Example 307, N-(5-((2S,5R,6S)-5-amino-6-fluorooxepan-2-yl)-1-methyl-1H-pyrazol-4-yl)-2-(5-ethyl-2-fluorophenyl)thiazole-4-carboxamide]
0.054 nM | Cn1ncc(NC(=O)c2csc(-c3cccc(Cl)c3F)n2)c1[C@@H]1CC[C@@H](N)[C@H](F)CO1 [Example 308, N-(5-((2S,5R,6S)-5-amino-6-fluorooxepan-2-yl)-1-methyl-1H-pyrazol-4-yl)-2-(3-chloro-2-fluorophenyl)thiazole-4-carboxamide]
